The record followed here is the OligoGym collection.

Where “and” joins values, the source holds several entries; their conditions need not be identical. Equal values may be shown once. HELM strings list units from the 5' end as sugar, base in round brackets, then linkage (d deoxyribose, r ribose, m 2'-O-methyl, p phosphodiester). Strings are as the collection lists them, not checked against the first reports. ss, as = sense and antisense strand; [lna] = locked nucleic acid (LNA); [una] = unlocked nucleic acid; [hna] = hexitol nucleic acid; [s4r] = 4'-thioribose; [fl2r] = 2'-fluoro
Further: test system not given here.

For the series the following is noted: siRNA.
The substance “RNA1{r(C)p.r(C)p.r(U)p.r(C)p.r(G)p.r(G)p.r(A)p.r(G)p.r(A)p.r(G)p.r(U)p.r(U)p.r(C)p.r(U)p.r(A)p.r(C)p.r(U)p.r(C)p.r(U)p.r(T)p.r(T)}|RNA2{r(A)p.r(G)p.r(A)p.r(G)p.m(U)p.r(A)p.r(G)p.r(A)p.r(A)p.r(C)p.r(U)p.r(C)p.r(U)p.r(C)p.r(C)p.r(G)p.r(A)p.r(G)p.r(G)p.r(T)p.r(T)}$$$RNA1{StrandType:ss}|RNA2{StrandType:as}$” displayed a target mRNA knockdown of 85%. Substance “RNA1{[fl2r](G)p.r(A)p.[fl2r](G)p.r(U)p.[fl2r](A)p.r(U)p.[fl2r](U)p.r(U)p.[fl2r](C)p.r(C)p.[fl2r](G)p.r(C)p.[fl2r](U)p.r(G)p.[fl2r](G)p.r(A)p.[fl2r](A)p.r(C)p.[fl2r](U)p.r(T)p.r(T)}|RNA2{r(A)p.r(G)p.r(U)p.r(U)p.r(C)p.r(C)p.r(A)p.r(G)p.r(C)p.r(G)p.r(G)p.r(A)p.r(A)p.r(A)p.r(U)p.r(A)p.r(C)p.r(U)p.r(C)p.r(T)p.r(T)}$$$RNA1{StrandType:ss}|RNA2{StrandType:as}$” had a target mRNA knockdown of 21%. Next, “RNA1{m(A)p.r(C)p.m(C)p.r(G)p.m(A)p.r(C)p.m(G)p.r(A)p.m(U)p.r(U)p.m(C)p.r(U)p.m(U)p.r(C)p.m(U)p.r(A)p.m(C)p.r(U)p.m(C)p.r(T)p.r(T)}|RNA2{r(G)p.r(A)p.r(G)p.r(U)p.r(A)p.r(G)p.r(A)p.r(A)p.r(G)p.r(A)p.r(A)p.r(U)p.r(C)p.r(G)p.r(U)p.r(C)p.r(G)p.r(G)p.r(U)p.r(T)p.r(T)}$$$RNA1{StrandType:ss}|RNA2{StrandType:as}$”: 42%; “RNA1{r(U)p.r(A)p.r(C)p.r(C)p.r(G)p.r(A)p.r(G)p.r(A)p.r(A)p.r(U)p.r(G)p.m(A)p.r(G)p.m(C)p.r(C)p.m(U)p.r(G)p.m(A)p.r(U)p.r(T)p.r(T)}|RNA2{m(A)p.r(U)p.m(C)p.r(A)p.m(G)p.r(G)p.m(C)p.r(U)p.m(C)p.r(A)p.m(U)p.r(U)p.m(C)p.r(U)p.m(C)p.r(G)p.m(G)p.r(U)p.m(A)p.r(T)p.r(T)}$$$RNA1{StrandType:ss}|RNA2{StrandType:as}$”: 23%. Next, “RNA1{[fl2r](G)p.m(A)p.[fl2r](C)p.m(G)p.[fl2r](U)p.m(A)p.[fl2r](A)p.m(A)p.[fl2r](C)p.m(G)p.[fl2r](G)p.m(C)p.[fl2r](C)p.m(A)p.[fl2r](C)p.m(A)p.[fl2r](A)p.m(G)p.[fl2r](U)p.m(U)p.[fl2r](C)}|RNA2{r(A)p.r(C)p.r(U)p.r(U)p.r(G)p.r(U)p.r(G)p.r(G)p.r(C)p.r(C)p.r(G)p.r(U)p.r(U)p.r(U)p.r(A)p.r(C)p.r(G)p.r(U)p.[lna](C)p.[lna](G)p.r(C)}$$$RNA1{StrandType:ss}|RNA2{StrandType:as}$”: 84.4%; “RNA1{r(U)p.r(U)p.r(U)p.r(C)p.r(C)p.r(C)p.r(C)p.r(C)p.[fl2r](A)p.[fl2r](G)p.[fl2r](G)p.r(U)p.[fl2r](A)p.[fl2r](A)p.[fl2r](C)p.[fl2r](G)p.r(A)p.r(U)p.r(U)p.r(T)p.r(T)}|RNA2{r(A)p.r(A)p.r(U)p.r(C)p.r(G)p.r(U)p.r(U)p.r(A)p.r(C)p.r(C)p.r(U)p.r(G)p.r(G)p.r(G)p.r(G)p.r(G)p.r(A)p.r(A)p.r(A)p.r(T)p.r(T)}$$$RNA1{StrandType:ss}|RNA2{StrandType:as}$”: 78%. With “RNA1{r(G)p.r(U)p.r(A)p.r(U)p.r(G)p.r(A)p.r(C)p.r(C)p.r(G)p.r(A)p.r(C)p.r(U)p.r(A)p.r(C)p.r(G)p.r(C)p.r(G)p.r(U)p.r(A)p.r(T)p.r(T)}|RNA2{r(U)p.r(U)p.r(C)p.r(A)p.r(G)p.r(U)p.r(G)p.r(U)p.r(G)p.r(A)p.r(U)p.r(G)p.r(A)p.r(C)p.r(A)p.r(C)p.r(U)p.r(U)p.[una](G)p.r(T)p.r(T)}$$$RNA1{StrandType:ss}|RNA2{StrandType:as}$” the figure was 82%; with “RNA1{r(C)p.r(C)p.r(U)p.r(C)p.r(C)p.r(C)p.r(C)p.r(A)p.r(U)p.r(C)p.r(C)p.r(C)p.r(C)p.r(U)p.r(U)p.r(U)p.r(U)p.r(A)p.r(A)p.r(T)p.r(T)}|RNA2{r(U)p.r(U)p.m(A)p.r(A)p.r(A)p.r(A)p.r(G)p.r(G)p.r(G)p.r(G)p.r(A)p.r(U)p.r(G)p.r(G)p.r(G)p.r(G)p.r(A)p.r(G)p.r(G)p.r(T)p.r(T)}$$$RNA1{StrandType:ss}|RNA2{StrandType:as}$”, 80%; with “RNA1{r(A)p.r(C)p.r(C)p.r(G)p.r(A)p.r(C)p.r(G)p.r(A)p.r(U)p.r(U)p.r(C)p.r(U)p.r(U)p.r(C)p.m(U)p.r(A)p.r(C)p.r(U)p.r(C)p.r(T)p.r(T)}|RNA2{r(G)p.r(A)p.r(G)p.m(U)p.r(A)p.r(G)p.r(A)p.r(A)p.r(G)p.m(A)p.m(A)p.r(U)p.r(C)p.r(G)p.r(U)p.r(C)p.r(G)p.r(G)p.r(U)p.r(T)p.r(T)}$$$RNA1{StrandType:ss}|RNA2{StrandType:as}$”, 67%. The substance “RNA1{[s4r](C)p.[s4r](G)p.r(U)p.r(A)p.r(C)p.r(G)p.r(C)p.r(G)p.r(G)p.r(A)p.r(A)p.r(U)p.r(A)p.r(C)p.r(U)p.r(U)p.r(C)p.r(G)p.r(A)p.r(T)p.r(T)}|RNA2{r(U)p.r(C)p.r(G)p.r(A)p.r(A)p.r(G)p.r(U)p.r(A)p.r(U)p.r(U)p.r(C)p.r(C)p.r(G)p.r(C)p.r(G)p.r(U)p.r(A)p.r(C)p.r(G)p.r(T)p.r(T)}$$$RNA1{StrandType:ss}|RNA2{StrandType:as}$” showed a target mRNA knockdown of 95.5%.

“RNA1{r(G)p.r(A)p.r(C)p.r(G)p.[hna](U)p.r(A)p.r(A)p.[hna](A)p.r(C)p.r(G)p.[hna](G)p.r(C)p.r(C)p.[hna](A)p.r(C)p.r(A)p.r(A)p.r(G)p.r(U)p.[hna](U)p.d(T)}|RNA2{r(A)p.r(C)p.[hna](U)p.r(U)p.r(G)p.r(U)p.r(G)p.r(G)p.r(C)p.r(C)p.r(G)p.r(U)p.r(U)p.r(U)p.r(A)p.r(C)p.r(G)p.[hna](U)p.[hna](C)p.[hna](G)p.d(T)}$$$RNA1{StrandType:ss}|RNA2{StrandType:as}$”: the target mRNA knockdown came to 25.2%.

In the case of “RNA1{r(G)p.r(U)p.r(A)p.r(U)p.r(G)p.r(A)p.r(C)p.r(C)p.r(G)p.r(A)p.r(C)p.r(U)p.r(A)p.r(C)p.r(G)p.r(C)p.r(G)p.r(U)p.r(A)p.r(T)p.r(T)}|RNA2{r(U)p.r(U)p.[una](C)p.r(A)p.r(G)p.r(U)p.r(G)p.r(U)p.r(G)p.r(A)p.r(U)p.r(G)p.r(A)p.r(C)p.r(A)p.r(C)p.r(U)p.r(U)p.r(G)p.r(T)p.r(T)}$$$RNA1{StrandType:ss}|RNA2{StrandType:as}$”, the target mRNA knockdown was 45% and 50%. On to “RNA1{r(C)p.m(U)p.r(A)p.r(G)p.r(U)p.r(C)p.r(G)p.r(A)p.m(A)p.r(A)p.r(G)p.r(A)p.m(A)p.m(A)p.r(A)p.r(C)p.r(G)p.r(G)p.r(G)p.r(T)p.r(T)}|RNA2{r(C)p.r(C)p.r(C)p.r(G)p.r(U)p.r(U)p.r(U)p.r(U)p.r(C)p.r(U)p.r(U)p.r(U)p.r(C)p.r(G)p.r(A)p.r(C)p.m(U)p.r(A)p.r(G)p.r(T)p.r(T)}$$$RNA1{StrandType:ss}|RNA2{StrandType:as}$”, for which the target mRNA knockdown amounted to 55%. With “RNA1{m(U)p.r(A)p.m(G)p.r(C)p.m(C)p.r(A)p.m(G)p.r(A)p.m(G)p.r(C)p.m(C)p.r(A)p.m(A)p.r(A)p.r(G)p.m(A)p.r(A)p.r(G)p.r(C)p.r(T)p.r(T)}|RNA2{r(G)p.r(C)p.m(U)p.m(U)p.r(C)p.m(U)p.m(U)p.m(U)p.r(G)p.r(G)p.r(C)p.m(U)p.r(C)p.m(U)p.r(G)p.r(G)p.r(C)p.m(U)p.r(A)p.r(T)p.r(T)}$$$RNA1{StrandType:ss}|RNA2{StrandType:as}$” the figure was 75%; with “RNA1{r(G)p.r(A)p.r(C)p.r(A)p.r(A)p.r(G)p.r(G)p.r(G)p.r(A)p.r(A)p.r(G)p.r(G)p.r(U)p.m(U)p.r(A)p.r(G)p.r(C)p.r(C)p.r(U)p.r(T)p.r(T)}|RNA2{r(A)p.r(G)p.r(G)p.r(C)p.m(U)p.r(A)p.r(A)p.r(C)p.r(C)p.r(U)p.r(U)p.r(C)p.r(C)p.r(C)p.r(U)p.r(U)p.r(G)p.r(U)p.r(C)p.r(T)p.r(T)}$$$RNA1{StrandType:ss}|RNA2{StrandType:as}$”, 72%. As to “RNA1{r(G)p.r(A)p.r(A)p.r(G)p.r(G)p.r(G)p.r(G)p.r(A)p.r(A)p.r(A)p.r(U)p.r(C)p.m(U)p.m(G)p.m(U)p.m(G)p.r(G)p.r(U)p.r(U)p.r(T)p.r(T)}|RNA2{r(A)p.r(A)p.r(C)p.m(C)p.m(A)p.m(C)p.m(A)p.r(G)p.r(A)p.r(U)p.r(U)p.r(U)p.r(C)p.r(C)p.r(C)p.r(C)p.r(U)p.r(U)p.r(C)p.r(T)p.r(T)}$$$RNA1{StrandType:ss}|RNA2{StrandType:as}$”, the target mRNA knockdown came to 61%. Next, “RNA1{r(G)p.r(A)p.r(C)p.r(G)p.r(U)p.r(A)p.r(A)p.r(A)p.r(C)p.r(G)p.r(G)p.r(C)p.r(C)p.r(A)p.r(C)p.r(A)p.r(A)p.r(G)p.r(U)p.[lna](T)p.[lna](C)}|RNA2{[fl2r](A)p.m(C)p.[fl2r](U)p.m(U)p.[fl2r](G)p.m(U)p.[fl2r](G)p.m(G)p.[fl2r](C)p.m(C)p.[fl2r](G)p.m(U)p.[fl2r](U)p.m(U)p.[fl2r](A)p.m(C)p.[fl2r](G)p.m(U)p.[fl2r](C)p.m(G)p.[fl2r](C)}$$$RNA1{StrandType:ss}|RNA2{StrandType:as}$”: 81.2%. On to “RNA1{r(C)p.r(C)p.r(G)p.r(A)p.r(A)p.r(G)p.r(A)p.r(C)p.r(G)p.r(A)p.r(A)p.r(G)p.r(C)p.[fl2r](U)p.r(A)p.[fl2r](U)p.r(G)p.r(A)p.r(A)p.r(T)p.r(T)}|RNA2{r(U)p.r(U)p.[fl2r](C)p.r(A)p.[fl2r](U)p.r(A)p.r(G)p.r(C)p.r(U)p.r(U)p.r(C)p.r(G)p.r(U)p.r(C)p.r(U)p.r(U)p.r(C)p.r(G)p.r(G)p.r(T)p.r(T)}$$$RNA1{StrandType:ss}|RNA2{StrandType:as}$”, for which the target mRNA knockdown amounted to 46%. With “RNA1{r(G)p.r(U)p.r(A)p.r(U)p.r(G)p.r(A)p.r(C)p.r(C)p.r(G)p.r(A)p.r(C)p.r(U)p.r(A)p.r(C)p.r(G)p.r(C)p.r(G)p.r(U)p.r(A)p.r(T)p.r(T)}|RNA2{r(U)p.r(U)p.r(C)p.[una](A)p.r(G)p.r(U)p.r(G)p.r(U)p.r(G)p.r(A)p.r(U)p.r(G)p.r(A)p.r(C)p.r(A)p.r(C)p.r(U)p.r(U)p.r(G)p.r(T)p.r(T)}$$$RNA1{StrandType:ss}|RNA2{StrandType:as}$” the figure was 94%.
